Laboratory results reported in the NIST ThermoML archive (doi:10.1016/j.jct.2009.01.008).

Key:
[1] = refractive index (Na D-line) (dimensionless); details: 298.15 K; 101.33 kPa; Liquid
[2] = 101 kPa, Liquid, Linear variable-path acoustic interferometer
[3] = xn = mol fraction of the nth substance listed; details: 101 kPa, Liquid, Linear variable-path acoustic interferometer

CC(C)CC(C)(C)C [2,2,4-trimethylpentane]
Details | refractive index
[1] | 1.38905

[2]
Details | speed of sound [m/s]
298.15 K | 1082.8
308.15 K | 1041.1
318.15 K | 1000
328.15 K | 958.4

CC(C)CC(C)(C)C [2,2,4-trimethylpentane] + COC(C)(C)C
[3], x2 = 0
Details | speed of sound [m/s]
298.15 K | 1082.8
308.15 K | 1041.1
318.15 K | 1000
328.15 K | 958.4

CC(C)CC(C)(C)C [2,2,4-trimethylpentane] + Cc1ccccc1
speed of sound [m/s], [3]
Details | 298.15 K | 308.15 K | 318.15 K | 328.15 K
x2 = 0 | 1082.8 | 1041.1 | 1000 | 958.4
x2 = 0.07776 | 1092.7 | 1051.1 | 1009.9 | 969.3
x2 = 0.1405 | 1101.3 | 1059.7 | 1018.5 | 977.9
x2 = 0.2059 | 1110.8 | 1069.2 | 1028.1 | 987.5
x2 = 0.2671 | 1120.3 | 1078.7 | 1037.6 | 997
x2 = 0.3385 | 1132.3 | 1090.7 | 1049.5 | 1008.8
x2 = 0.3976 | 1143 | 1101.3 | 1060.1 | 1019.4
x2 = 0.4724 | – | 1115.6 | 1074.3 | –
x2 = 0.5328 | 1170 | – | 1086.9 | 1046.1
x2 = 0.5966 | 1184.2 | 1142.3 | 1100.9 | 1060
x2 = 0.6699 | 1201.9 | 1159.9 | 1118.4 | 1077.5
x2 = 0.7302 | 1217.5 | 1175.4 | – | 1092.8
x2 = 0.7895 | – | – | 1150.3 | –
x2 = 0.8001 | 1237.5 | 1195.3 | 1153.6 | 1112.4
x2 = 0.8681 | 1258.4 | 1216.1 | 1174.2 | 1132.8
x2 = 0.8691 | 1259 | – | – | –
x2 = 0.9539 | 1288.1 | 1245.4 | 1203.3 | –

COC(C)(C)C [2-methoxy-2-methylpropane]
Details | refractive index
[1] | 1.36648

[2]
Details | speed of sound [m/s]
298.15 K | 1036.4
308.15 K | 990.8
318.15 K | 945.3

COC(C)(C)C [2-methoxy-2-methylpropane] + CC(C)CC(C)(C)C
speed of sound [m/s], [3]
Details | 298.15 K | 308.15 K | 318.15 K | 328.15 K
x1 = 0.05551 | 1079.2 | 1037.5 | – | –
x1 = 0.08857 | 1077.1 | – | 993.7 | 952.7
x1 = 0.1305 | 1074.8 | 1032.8 | 991.2 | –
x1 = 0.1971 | 1071 | 1028.7 | 986.9 | 945.5
x1 = 0.2599 | 1067.4 | 1024.9 | 983 | 941.5
x1 = 0.3284 | 1063.8 | 1021 | 978.9 | –
x1 = 0.3315 | – | – | – | 936.4
x1 = 0.4078 | 1059.5 | 1016.4 | 973.8 | –
x1 = 0.4756 | 1056.1 | 1012.7 | – | –
x1 = 0.5629 | 1052 | 1008.2 | 964.9 | 922.2
x1 = 0.6184 | 1049.5 | – | – | –
x1 = 0.6831 | 1046.7 | 1002.5 | 958.7 | 915.2
x1 = 0.7456 | 1044.1 | 995.5 | 955.6 | –
x1 = 0.7644 | 1043.4 | – | – | –
x1 = 0.8143 | 1041.7 | – | – | –
x1 = 0.8155 | 1041.5 | 996.6 | 952.4 | –
x1 = 0.8675 | 1039.8 | 994.7 | 950 | –
x1 = 0.9376 | 1037.8 | 992.5 | 947.4 | –
x1 = 1 | 1036.4 | 990.8 | 945.3 | –

COC(C)(C)C [2-methoxy-2-methylpropane] + Cc1ccccc1
speed of sound [m/s], [3]
Details | 298.15 K | 308.15 K | 318.15 K | 328.15 K
x1 = 0.1021 | 1277.4 | 1234.5 | 1192 | 1149.9
x1 = 0.2035 | 1250 | 1206.7 | 1163.9 | 1121.6
x1 = 0.2591 | 1234.8 | 1191.3 | 1148.5 | 1106.1
x1 = 0.3321 | 1215.2 | 1171.6 | 1128.4 | 1086.2
x1 = 0.4008 | 1196.7 | 1152.9 | 1109.5 | 1066.9
x1 = 0.4665 | – | – | – | 1049.4
x1 = 0.5323 | – | – | – | 1030.2
x1 = 0.5894 | 1145.8 | 1101.5 | 1057.6 | –
x1 = 0.664 | 1125.8 | 1081.2 | 1037 | –
x1 = 0.7257 | – | – | 1020.4 | 976.5
x1 = 0.7956 | – | 1045.7 | 1001 | 958.4
x1 = 0.8643 | 1072.3 | 1027.1 | 982.4 | –
x1 = 0.9025 | 1062.2 | 1016.8 | 971.6 | –
x1 = 1 | 1036.4 | 990.8 | 945.3 | –

Cc1ccccc1 [toluene]
Details | refractive index
[1] | 1.4941

[2]
Details | speed of sound [m/s]
298.15 K | 1305.4
308.15 K | 1262.6
318.15 K | 1220.3
328.15 K | 1178.6

Cc1ccccc1 [toluene] + CC(C)CC(C)(C)C
[3], x1 = 1
Details | speed of sound [m/s]
298.15 K | 1305.4
308.15 K | 1262.6
318.15 K | 1220.3
328.15 K | 1178.6

Cc1ccccc1 [toluene] + COC(C)(C)C
[3], x2 = 0
Details | speed of sound [m/s]
298.15 K | 1305.4
308.15 K | 1262.6
318.15 K | 1220.3
328.15 K | 1178.6
